Laboratory results taken from patent publication US8580732B2, “Peptide therapy for hyperglycemia” (Duke University, priority 2009, dated 2013).

Key:
Type in all cases: cell-based
[1] = tested on: isolated rat islets; assay: Etoposide-induced apoptosis, Annexin V staining by flow cytometry, isolated rat islets; conditions: 72 hr
Method: Pools of 50 islets were treated with DMSO, etoposide (0.2 mM) or camptothecin (10 μM) for 72 hrs as indicated. Islets were co-incubated with peptide (50 nM TLQP-21, 50 nM exendin-4), H89 (concentration), and/or LY294002 (concentration) where indicated. Islets were dispersed using 0.05% trypsin/EDTA (Sigma) diluted 1:1 with cell dissociation buffer (Sigma) for 5-10 min at 37 C following gentle pipetting. Islets were recovered by centrifugation and stained with FITC-conjugated Annexin V and propidium iodide (Roche) according to the manufacturer's specifications. Data were collected using a FACScan analyzer and analyzed using WinMDI 2.9 software.

[2] = tested on: primary rat islets; assay: cAMP level determination in primary rat islets; conditions: 16.7 mM Glc, 30 min, TLQP-21 50 nM, exendin-4 20 nM, relative to untreated control
Method: Primary rat islets and 832/3 cells were prepared as stated for insulin secretion measurements except the incubation at stimulatory glucose was for 30 min in the presence of 0.1 mM isobuytlmethylxanthine (IBMX). Rat islets were rapidly transferred to 0.2 mL of ice-cold 80% ethanol and stored at −80° C. until assayed. Samples were evaporated to dryness and assayed using the cAMP EIA kit from Biomedical Technologies, Inc. using acetylation protocol. For 832/3 cells, the secretion buffer was removed and rapidly replaced with 0.5 mL of 80% ethanol. Cells were stored at −80° C. until assayed. 0.2 mL of sample was evaporated to dryness and assayed for cAMP using the non-acetylation protocol.

[3] = tested on: primary rat islets; assay: Glucose-stimulated insulin secretion (GSIS), static incubation, primary rat islets; conditions: 16.7 mM Glc
Method: (§1) 832/3 and 832/13 cells derived from the parental INS-1 cell line were cultured as previously described (REF-Hohmeier/Wolheim). Pancreatic islets were isolated from male Sprague-Dawley rats according to standard procedures (See, e.g., Ronnebaum et al., (2006) J. Biol. Chem. 281: 30593-30602). For cell culture experiments, TLQP-21 was purchased from Phoenix Pharmaceuticals. For animal studies, TLQP-21 was synthesized by GenScript Corporation. AQEE-30 was a kind gift of Dr. Yun-Ping (Merck Research Laboratories).
Human VGF cDNA was purchased from Open Biosystems and subcloned into pAC.CMV using PCR engineered restriction sites. Recombinant adenovirus was generated as previously described (REF). Adenoviruses expressing Nkx6.1, Pdx-1, GFP, beta-galactosidase have been described elsewhere (REF). […]
Islets: 3 groups of 20 islets were washed with phosphate-buffered saline (PBS) and incubated in secretion assay buffer (SAB; 114 mM NaCl, 4.7 mM KCl, 1.2 mM […], 1.16 mM MgSO4, 25 mM HEPES pH 7.2, 2.5 mM CaCl2, 0.2% bovine serum albumin (Gibco), 25.5 mM NaHCO3) containing 2.5 mM Glc for 1 hr at 37° C. […] Islets were lysed in RIPA buffer containing 5 mM EDTA and total protein determined by BCA (Pierce). Insulin was measured from SAB using the Coat-a-Count kit (Siemens). Insulin content was determined from a 1:100 dilution of total protein.

[4] = tested on: 832/3 cells; assay: Glucose-stimulated insulin secretion (GSIS), static incubation, 832/3 cells; conditions: 12 mM Glc, concentrations that augment insulin release in rat islets
Method: as §1
832/3 cells were plated in triplicate per condition in 12-well dishes and assayed at confluence. Cells were washed in SAB buffer and pre-incubated for 1.5 hr in SAB containing 2.5 mM Glc. Insulin was collected by static incubation in SAB containing 2.5 mM Glc for 2 hrs at 37° C. (basal) followed by incubation in SAB containing 12 mM Glc for 2 hrs (stimulatory). Secretagogues (20 nM exendin-4, TLQP-21, AQEE-30) were added where indicated. Cells were washed in PBS, collected by centrifugation, and lysed in 50 uL RIPA containing 5 mM EDTA. Total protein was determined by BCA (Pierce). Insulin was measured from SAB using the Coat-a-Count kit (Siemens). Insulin content was determined from a 1:500 dilution of total protein.

For exendin-4, the “protection against etoposide-mediated apoptosis” value ([1]; co-culture with etoposide 0.2 mM) was “comparable level of protection”, the “increase in cAMP levels” value [2] was roughly 3 fold and the “enhancement of GSIS” value ([3]; 20 nM) was 1.8 fold.
COc1cc([C@@H]2c3cc4c(cc3[C@@H](O[C@@H]3O[C@@H]5CO[C@@H](C)O[C@H]5[C@H](O)[C@H]3O)[C@H]3COC(=O)[C@H]23)OCO4)cc(OC)c1O [etoposide] was tested, and the “increase in Annexin V positive cells over untreated (DMSO) control” value ([1]; etoposide 0.2 mM alone) was 18% and the “islet cells staining positive for Annexin V” value ([1]; etoposide 0.2 mM alone) was 35%.
“AQEE-30: second C-terminal VGF peptide; SEQ ID NO:14 is rat AQEE-30 polypeptide (AQARRAQEEADAEERRLQEQEELENYIEHVLLHRP; listed as Rattus norvegicus)” was tested, and the “ability to potentiate GSIS” value [4] was “unable to augment GSIS” and the “ability to potentiate GSIS” value [3] was “unable to augment GSIS”.
